What was measured:
[1] = tested on: neurons in the pre-Bötzinger complex; assay: Electrophysiologic recording of neurons in the pre-Bötzinger complex in rat medullary slices; assay type: cell-based; conditions: whole cell patch clamp, versus vehicle (0.1% DMSO) control, FIG. 1
Text: (§1) Neonatal rats (postnatal day 1-10) were decapitated and the neuraxis was isolated in a chamber filled with oxygenated artificial cerebrospinal fluid solution (ACSF, in mM: NaCl 125, KCl 2.5, MgCl2 1, CaCl2 2, NaHCO3 25, NaH2PO4 1.25, glucose 25, pH 7.4). The cerebellum was removed, and the brainstem was mounted in the vibratome (VT 1000S; Leica, Milan, Italy) chamber filled with oxygenated gluconate cutting solution (in mM: Kgluconate 130, KCl 15, EGTA 0.2, HEPES 20, glucose 25, kynurenic acid 2, pH 7.4). Transverse medullary slices containing the pre-Bötzinger complex and hypoglossal nucleus were cut (400-600 μm thick). The slices were transferred at room temperature for 1 min in an oxygenated mannitol cutting solution (in mM: D-mannitol 225, glucose 25, KCl 2.5, NaH2PO4 1.25, NaHCO3 26, CaCl2 0.8, MgCl2 8, kynurenic acid 2, pH 7.4). Slices were then transferred in ACSF solution at 30° C. for 30 min and at room temperature for 30 min. At least 30 min prior to the start of recording, each slice was transferred in the recording solution in which the concentration of K+ was raised to 9 mM and that of Mg2+ was decreased to 0.5 mM to ensure the production of long-term and stable rhythm. […] Signals were acquired using Clampex 10.6 software (Axon, Molecular Devices, CA, USA) at a sampling rate of 10-20 kHz and filtered at 2-10 kHz using an 8-pole Bessel filter built within the software and analyzed using Clampfit 10.6 software (pClamp 10.6; Axon, Molecular Devices). […] Bursts were then automatically detected, and burst frequency was measured.
(§2) To evaluate the effects of vehicle (0.1% DMSO) on neuronal activities, after 5 min of stabilization, the neuronal activities under basal condition was recorded for 2-12 min, followed by recording in the presence of vehicle (0.1% DMSO) for 30 min. […]

[2] = tested on: phrenic motoneurons; assay: Electrophysiologic recording of phrenic motoneurons in rat isolated brainstem-spinal cord preparations; assay type: cell-based; conditions: C3-5 ventral root, versus vehicle control, FIG. 2
Protocol: Neonatal (postnatal day 1-4) rats were decapitated, and the brainstem-spinal cord was dissected in a bath containing ACSF. The cerebellum and pons were ablated. At least 30 min prior to the start of recording, the tissue was transferred in the recording solution in which the concentration of K+ was raised to 5 mM and that of Mg2+ was decreased to 0.5 mM to ensure production of long-term and stable rhythm (modified ACSF, in mM: NaCl 125, MgCl2 0.5, KCl 5, CaCl2 1, NaHCO3 25, NaH2PO4 1.25, glucose 30, pH 7.4). The tissues were glued on coverslips and transferred to a recording chamber and continuously perfused at 27±2° C. with mACSF at a flow rate of 2.3±0.2 mL/min. Activity of phrenic motoneurons was measured in electrophysiological recordings from C3-5 ventral root, outputs of phrenic motoneurons (J. J. Greer, J. C. Smith, J. L. Feldman, Respiratory and locomotor patterns generated in the fetal rat brain stem-spinal cord in vitro, J Neurophysiol 67 (4) (1992) 996-9; J. C. Smith, J. J. Greer, G. S. Liu, J. L. Feldman, Neural mechanisms generating respiratory pattern in mammalian brain stem-spinal cord in vitro. I. Spatiotemporal patterns of motor and medullary neuron activity, J Neurophysiol 64 (4) (1990) 1149-69), using a glass suction electrode. […] The rectification and integration was used for quantification of the activities of phrenic motoneurons because the spontaneous bursts detected in voltage signals are consisting of multiple positive and negative voltages from baseline (T. Sugita, et al.). […] Bursts were then automatically detected, and burst frequency was measured.
To evaluate the effects of vehicle (0.1% DMSO) on neuronal activities, after 5 min of stabilization, the neuronal activities under basal condition were recorded for 2-20 min, followed by recording with vehicle (0.1% DMSO) for 30-40 min. […] As vehicle (0.1% DMSO) had no significant effects on burst frequency of phrenic neurons, potential of drugs was assessed under vehicle (0.1% DMSO). […]

[3] = tested on: hypoglossal motoneurons; assay: Electrophysiologic recording of hypoglossal motoneurons in rat medullary slices; assay type: cell-based; conditions: whole cell patch clamp, versus vehicle control, FIG. 3
Text: as §1, §2

[4] = target: T1, OX2R (Homo sapiens, UniProt O43614); conditions: OX2R-expressed recombinant cells; cited from earlier work
T1 sequence (O43614 1-444): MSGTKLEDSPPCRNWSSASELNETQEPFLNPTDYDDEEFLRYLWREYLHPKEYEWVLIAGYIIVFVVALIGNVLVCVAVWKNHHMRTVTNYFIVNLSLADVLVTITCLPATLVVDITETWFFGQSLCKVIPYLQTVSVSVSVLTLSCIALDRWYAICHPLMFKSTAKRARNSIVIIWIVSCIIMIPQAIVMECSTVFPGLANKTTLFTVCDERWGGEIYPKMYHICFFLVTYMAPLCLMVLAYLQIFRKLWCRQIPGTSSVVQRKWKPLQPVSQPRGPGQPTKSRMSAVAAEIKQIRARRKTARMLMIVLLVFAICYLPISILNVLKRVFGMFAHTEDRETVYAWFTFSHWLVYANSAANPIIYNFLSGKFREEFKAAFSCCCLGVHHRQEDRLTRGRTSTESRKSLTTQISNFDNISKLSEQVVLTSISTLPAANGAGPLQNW

[5] = target: T1, OX2R; conditions: OX2R-expressed recombinant cells; cited from earlier work; remark: listed apart in the source

Compound	burst frequency in neurons in the pre-Bötzinger complex [1]	burst frequency of phrenic motoneurons [2]	burst frequency of hypoglossal motoneurons [3]	calcium mobilization [4]	recruitment of β-arrestins [5]
CC(C)(O)C(=O)N1CC[C@H](NS(C)(=O)=O)[C@@H]1Cc1cccc(-c2cc(F)cc(F)c2)c1F [Compound B, N-((2S,3S)-1-(2-hydroxy-2-methylpropanoyl)-2-((2,3′,5′-trifluorobiphenyl-3-yl)methyl)pyrrolidin-3-yl) methanesulfonamide]	increased burst frequency	increased burst frequency	increased burst frequency	–	–
COc1ccc(-c2cccc(C(=O)N(C)C)c2)cc1S(=O)(=O)Nc1cccc(NCCNC(=O)c2ccccc2N(C)C)c1 [YNT-185]	–	–	–	increase calcium mobilization	promote recruitment of β-arrestins
Orexin-B: Orexin-B (OX-B) peptide	–	–	–	increase calcium mobilization	promote recruitment of β-arrestins

Source: patent US20260256753A1, “USE OF AN OREXIN 2 RECEPTOR AGONIST FOR IMPROVING RESPIRATORY FUNCTION DURING SLEEP” (TAKEDA PHARMACEUTICAL COMPANY LIMITED, priority 2023, published 2026)
